Assays:
[1] = biological target: human serum albumin (HSA) (Homo sapiens, UniProt P02768); conditions: cited from earlier work
[2] = blood pool agent; cited from earlier work
[3] = HPLC content of Gd-MS-325 in the formulation after heating (100% method, external standard); format: physicochemical
Protocol: The low content and the yellow coloration indicate decomposition.
For comparison: Content after HPLC/95° C. (6 hours): 98.9%.

Sequence of human serum albumin (HSA) (P02768 25-609): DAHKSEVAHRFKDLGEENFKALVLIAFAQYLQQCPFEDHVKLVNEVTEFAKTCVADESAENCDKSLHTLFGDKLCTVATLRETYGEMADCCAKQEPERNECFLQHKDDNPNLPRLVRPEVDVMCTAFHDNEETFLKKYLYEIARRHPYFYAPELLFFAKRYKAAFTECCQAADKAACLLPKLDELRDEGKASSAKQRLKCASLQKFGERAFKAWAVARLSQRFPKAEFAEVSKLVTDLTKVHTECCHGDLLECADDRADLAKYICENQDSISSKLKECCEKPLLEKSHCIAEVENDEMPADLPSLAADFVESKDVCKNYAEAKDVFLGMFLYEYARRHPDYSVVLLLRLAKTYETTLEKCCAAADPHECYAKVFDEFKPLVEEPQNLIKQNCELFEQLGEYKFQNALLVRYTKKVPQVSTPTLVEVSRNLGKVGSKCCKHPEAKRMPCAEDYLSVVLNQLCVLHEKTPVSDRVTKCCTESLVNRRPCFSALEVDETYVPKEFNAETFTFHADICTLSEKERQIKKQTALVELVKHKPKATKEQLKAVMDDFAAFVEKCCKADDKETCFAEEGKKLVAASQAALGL

content of Gd-MS-325 (HPLC) ([3]; 95° C. (6 hours), for comparison): 98.9%
content of Gd-MS-325 (HPLC) ([3]; in-situ formulation refluxed for 48 hours, low content and yellow coloration indicate decomposition): 96.3%
Substance: gadolinato(3-),[[(4R)-4[bis[(carboxy-.kappa.O)methyl]amino-.kappa.N]-6,9-bis[(carboxy-.kappa.O)methyl]-1-[(4,4-diphenylcyclohexyl)oxy]-1-hydroxy-2-oxa-6,9-diaza-1-phosphaundecan-11-ylic-acid-.kappa.N6,.kappa.N9,kappa.011]1-oxidato(6-)]-trihydrogen [Gd-MS-325]
binding to human serum albumin (HSA) [1]: binds to human serum albumin (HSA)
retention in the intravascular space [2]: retained in the intravascular space

Reference: patent US6559330B1, “CALCIUM COMPLEX OF [[(4R)-4-[BIS{CARBOXY-.KAPPA.O)METHYL]AMINO-.KAPPA.N]-6,9-BIS[(CARBOXY.KAPPA.O)METHYL]-1-[(4,4-DIPHENYLCYCLOHEXYL)OXY]-1-HYDROXY-2-OXA-6,9-DIAZA-1-PHOSPHAUNDECAN-11-YLIC-ACID-.KAPPA.N6,.KAPPA.N9,.KAPPA.011]1-OXIDATO(6-)]-, HEXAHYDROGEN, ITS SALTS, PHARMACEUTICAL AGENTS THAT …” (Schering Aktiengesellschaft, priority 1999, dated 2003)
